Measurements: patent publication US20080039425A1, “Methods and Compositions to Reduce Tissue Irritation in Parenteral Formulations” (ALLOS THERAPEUTICS, INC., priority 2004, published 2008)

Test system: rat tail vein
Test: Rat-tail model, histopathological evaluation of tissue damage
Assay type: in vivo
Conditions: for Histopathology Score: rat tail vein, relative to efaproxiral at 38 mg/mL
Description: In order to determine if the effects seen in the NMR correlated to an ability of the dextrins to protect tissue, an animal model was designed. […] A 38 mg/mL efaproxiral solution was administered as the positive control. A saline solution was used as the negative control.
Maltodextrin has the property of being a safer molecule than its cyclic relative.

SMILES | Histopathology Score (efaproxiral 20 mg/mL) [%] | Histopathology Score (efaproxiral 38 mg/mL (positive control)) [%] | Tissue damage in rat tail (in words) (38 mg/mL efaproxiral, compared with saline negative control)
Cc1cc(C)cc(NC(=O)Cc2ccc(OC(C)(C)C(=O)O)cc2)c1 [Efaproxiral, 2-[4-[2-[(3,5-dimethylphenyl)amino]-2-oxoethyl]phenoxy]-2-methyl-propionic acid] | 24 | 100 | 
Cc1cc(C)cc(NC(=O)Cc2ccc(OC(C)(C)C(=O)[O-])cc2)c1.[Na+] [efaproxiral-Na] |  |  | significant damage was observed beyond that associated with the administration
